From patent US20090311217A1, “3-SUBSTITUTED-1H-INDOLE COMPOUNDS, THEIR USE AS MTOR KINASE AND PI3 KINASE INHIBITORS, AND THEIR SYNTHESES” (priority 2008, published 2009)

Assays:
Type in all cases: biochemical
[1] = biological target: PI3K-beta (Homo sapiens, UniProt P42338); assay: PI3K-beta fluorescence polarization assay; conditions: read-out: PI3Kβ Avg. IC50
Outline: (§1)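 Enzyme 5 ng; substrate diC8-PI(4,5)P2 2.5 μM; ATP 25 μM; 5 mM HEPES pH 7, 2.5 mM MgCl2; DMSO ≤2%; 1 h, 25° C. Quench 10 mM EDTA. Detect with GRP1 PH domain 100 nM + TMR-IP4 probe 5 nM by polarization.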

[2] = biological target: PI3K-gamma (Homo sapiens, UniProt P48736); assay: PI3K-gamma fluorescence polarization assay; conditions: PI3Kγ Avg. IC50
Chain of PI3K-gamma (P48736 whole entry, species assumed): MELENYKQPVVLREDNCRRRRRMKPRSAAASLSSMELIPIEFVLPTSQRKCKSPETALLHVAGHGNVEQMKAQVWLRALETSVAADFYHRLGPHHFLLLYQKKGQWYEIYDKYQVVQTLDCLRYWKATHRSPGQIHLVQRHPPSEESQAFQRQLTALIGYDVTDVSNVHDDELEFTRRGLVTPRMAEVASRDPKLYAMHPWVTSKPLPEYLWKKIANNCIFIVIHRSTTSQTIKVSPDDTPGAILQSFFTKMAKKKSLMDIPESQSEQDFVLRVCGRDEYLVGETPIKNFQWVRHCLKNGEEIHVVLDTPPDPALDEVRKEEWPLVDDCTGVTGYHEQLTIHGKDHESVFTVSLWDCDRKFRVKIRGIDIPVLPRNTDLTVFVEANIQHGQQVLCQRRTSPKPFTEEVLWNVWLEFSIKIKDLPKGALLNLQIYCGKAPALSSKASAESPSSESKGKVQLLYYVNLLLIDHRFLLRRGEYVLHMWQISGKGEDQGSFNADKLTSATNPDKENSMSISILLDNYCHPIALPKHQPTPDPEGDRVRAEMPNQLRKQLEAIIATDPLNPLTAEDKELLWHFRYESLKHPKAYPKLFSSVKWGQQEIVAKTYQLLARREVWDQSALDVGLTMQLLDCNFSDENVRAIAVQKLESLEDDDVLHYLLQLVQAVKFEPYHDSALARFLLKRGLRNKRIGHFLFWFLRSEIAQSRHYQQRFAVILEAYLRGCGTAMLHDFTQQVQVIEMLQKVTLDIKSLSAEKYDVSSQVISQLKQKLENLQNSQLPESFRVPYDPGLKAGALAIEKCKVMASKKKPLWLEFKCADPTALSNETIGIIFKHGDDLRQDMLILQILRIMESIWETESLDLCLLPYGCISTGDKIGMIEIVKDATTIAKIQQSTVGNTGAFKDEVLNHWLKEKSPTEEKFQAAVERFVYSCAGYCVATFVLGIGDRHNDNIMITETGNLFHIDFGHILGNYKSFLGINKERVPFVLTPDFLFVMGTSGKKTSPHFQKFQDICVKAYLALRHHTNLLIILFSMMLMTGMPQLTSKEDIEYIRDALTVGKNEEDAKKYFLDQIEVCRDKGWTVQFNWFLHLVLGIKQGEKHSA
Outline: as §1

[3] = biological target: PI3K-alpha (Homo sapiens, UniProt P42336); assay: PI3K-alpha fluorescence polarization assay; conditions: read-out: PI3Kα Avg. IC50
Chain of PI3K-alpha (P42336 whole entry, species assumed): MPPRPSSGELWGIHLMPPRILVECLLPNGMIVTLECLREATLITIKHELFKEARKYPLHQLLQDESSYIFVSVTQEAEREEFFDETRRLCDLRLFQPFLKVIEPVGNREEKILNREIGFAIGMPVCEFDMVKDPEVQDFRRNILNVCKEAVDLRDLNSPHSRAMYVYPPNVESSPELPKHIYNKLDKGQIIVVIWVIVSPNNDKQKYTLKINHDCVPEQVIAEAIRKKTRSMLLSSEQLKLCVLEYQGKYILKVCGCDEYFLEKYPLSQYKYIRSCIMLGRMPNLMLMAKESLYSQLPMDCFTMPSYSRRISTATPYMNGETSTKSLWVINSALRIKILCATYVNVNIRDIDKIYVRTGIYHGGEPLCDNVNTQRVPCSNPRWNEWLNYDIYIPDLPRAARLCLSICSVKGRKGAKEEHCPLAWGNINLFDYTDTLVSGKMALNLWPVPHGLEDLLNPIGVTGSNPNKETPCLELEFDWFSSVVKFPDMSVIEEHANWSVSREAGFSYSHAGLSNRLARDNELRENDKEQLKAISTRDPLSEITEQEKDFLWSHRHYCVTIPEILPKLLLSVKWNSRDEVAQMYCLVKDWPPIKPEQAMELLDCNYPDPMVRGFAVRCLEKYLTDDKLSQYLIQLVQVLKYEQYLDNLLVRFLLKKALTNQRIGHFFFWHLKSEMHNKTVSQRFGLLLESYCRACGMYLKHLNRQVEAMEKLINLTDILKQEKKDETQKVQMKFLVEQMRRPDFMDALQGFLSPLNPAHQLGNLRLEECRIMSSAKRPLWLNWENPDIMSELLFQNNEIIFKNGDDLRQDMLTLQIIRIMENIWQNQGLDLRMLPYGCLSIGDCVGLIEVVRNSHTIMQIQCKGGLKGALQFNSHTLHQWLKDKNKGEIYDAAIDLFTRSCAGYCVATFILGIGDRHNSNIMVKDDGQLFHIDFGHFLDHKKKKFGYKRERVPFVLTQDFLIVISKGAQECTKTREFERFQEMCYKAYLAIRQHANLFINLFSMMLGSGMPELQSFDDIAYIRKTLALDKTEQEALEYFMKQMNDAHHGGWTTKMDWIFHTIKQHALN
Chain of PI3K-alpha (P27986 whole entry partner, species assumed): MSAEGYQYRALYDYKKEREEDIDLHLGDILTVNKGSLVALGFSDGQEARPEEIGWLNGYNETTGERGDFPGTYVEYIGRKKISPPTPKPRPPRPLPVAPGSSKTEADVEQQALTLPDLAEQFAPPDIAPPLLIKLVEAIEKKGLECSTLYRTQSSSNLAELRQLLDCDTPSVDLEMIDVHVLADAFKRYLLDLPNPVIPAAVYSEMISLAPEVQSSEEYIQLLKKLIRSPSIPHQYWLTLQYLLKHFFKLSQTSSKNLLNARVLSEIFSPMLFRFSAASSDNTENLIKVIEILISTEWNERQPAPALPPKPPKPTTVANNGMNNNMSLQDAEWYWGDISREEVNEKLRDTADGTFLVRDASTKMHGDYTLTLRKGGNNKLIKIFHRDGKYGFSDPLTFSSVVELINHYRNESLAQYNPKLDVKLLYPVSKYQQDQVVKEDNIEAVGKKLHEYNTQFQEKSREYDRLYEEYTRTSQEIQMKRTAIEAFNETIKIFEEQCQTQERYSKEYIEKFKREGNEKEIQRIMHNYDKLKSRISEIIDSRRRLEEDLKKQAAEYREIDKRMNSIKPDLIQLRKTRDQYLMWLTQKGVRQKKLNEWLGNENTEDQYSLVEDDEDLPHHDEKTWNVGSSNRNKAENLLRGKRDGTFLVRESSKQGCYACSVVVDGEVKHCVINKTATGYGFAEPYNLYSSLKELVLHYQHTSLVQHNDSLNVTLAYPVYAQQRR

[4] = biological target: T1, human TOR (Homo sapiens, UniProt P42345); assay: mTOR enzyme assay (DELFIA, His6-S6K substrate); conditions: read-out: mTOR Kinase Avg. IC50
T1 construct: FLAG

[5] = biological target: PI3K-delta (Homo sapiens, UniProt O00329); assay: PI3K-delta fluorescence polarization assay; conditions: read-out: PI3Kδ Avg. IC50
Chain of PI3K-delta (O00329 whole entry, species assumed): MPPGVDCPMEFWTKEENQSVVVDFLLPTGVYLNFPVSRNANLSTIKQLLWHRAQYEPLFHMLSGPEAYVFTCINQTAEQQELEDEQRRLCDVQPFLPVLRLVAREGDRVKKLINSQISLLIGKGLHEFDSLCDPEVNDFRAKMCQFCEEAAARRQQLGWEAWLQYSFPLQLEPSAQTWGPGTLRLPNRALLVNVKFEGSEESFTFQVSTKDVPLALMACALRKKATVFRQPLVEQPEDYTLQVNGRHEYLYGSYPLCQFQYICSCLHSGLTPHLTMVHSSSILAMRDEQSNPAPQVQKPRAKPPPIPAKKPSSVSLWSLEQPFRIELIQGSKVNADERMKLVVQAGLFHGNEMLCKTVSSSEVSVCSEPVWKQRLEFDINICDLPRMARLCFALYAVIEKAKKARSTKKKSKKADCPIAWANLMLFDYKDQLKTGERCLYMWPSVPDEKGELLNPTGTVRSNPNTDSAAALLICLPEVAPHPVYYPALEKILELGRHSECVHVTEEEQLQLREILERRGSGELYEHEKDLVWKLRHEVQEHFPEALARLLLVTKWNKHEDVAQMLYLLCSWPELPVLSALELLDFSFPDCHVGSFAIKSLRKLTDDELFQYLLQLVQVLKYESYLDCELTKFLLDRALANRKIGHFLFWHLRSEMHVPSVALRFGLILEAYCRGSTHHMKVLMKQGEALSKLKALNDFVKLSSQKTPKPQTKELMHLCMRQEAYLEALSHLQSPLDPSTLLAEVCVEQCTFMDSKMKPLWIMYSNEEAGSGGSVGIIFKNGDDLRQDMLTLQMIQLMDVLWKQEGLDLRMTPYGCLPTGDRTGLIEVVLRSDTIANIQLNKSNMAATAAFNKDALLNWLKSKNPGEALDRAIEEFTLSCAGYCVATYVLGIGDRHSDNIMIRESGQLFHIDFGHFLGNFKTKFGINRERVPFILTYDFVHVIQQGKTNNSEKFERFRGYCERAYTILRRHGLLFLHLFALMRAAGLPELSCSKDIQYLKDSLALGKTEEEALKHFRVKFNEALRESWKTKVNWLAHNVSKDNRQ
Chain of PI3K-delta (P27986 whole entry partner, species assumed): as the sequence (P27986 whole entry partner, species assumed) above

Chain of PI3K-beta (P42338 whole entry, species assumed, the tested form may be a part): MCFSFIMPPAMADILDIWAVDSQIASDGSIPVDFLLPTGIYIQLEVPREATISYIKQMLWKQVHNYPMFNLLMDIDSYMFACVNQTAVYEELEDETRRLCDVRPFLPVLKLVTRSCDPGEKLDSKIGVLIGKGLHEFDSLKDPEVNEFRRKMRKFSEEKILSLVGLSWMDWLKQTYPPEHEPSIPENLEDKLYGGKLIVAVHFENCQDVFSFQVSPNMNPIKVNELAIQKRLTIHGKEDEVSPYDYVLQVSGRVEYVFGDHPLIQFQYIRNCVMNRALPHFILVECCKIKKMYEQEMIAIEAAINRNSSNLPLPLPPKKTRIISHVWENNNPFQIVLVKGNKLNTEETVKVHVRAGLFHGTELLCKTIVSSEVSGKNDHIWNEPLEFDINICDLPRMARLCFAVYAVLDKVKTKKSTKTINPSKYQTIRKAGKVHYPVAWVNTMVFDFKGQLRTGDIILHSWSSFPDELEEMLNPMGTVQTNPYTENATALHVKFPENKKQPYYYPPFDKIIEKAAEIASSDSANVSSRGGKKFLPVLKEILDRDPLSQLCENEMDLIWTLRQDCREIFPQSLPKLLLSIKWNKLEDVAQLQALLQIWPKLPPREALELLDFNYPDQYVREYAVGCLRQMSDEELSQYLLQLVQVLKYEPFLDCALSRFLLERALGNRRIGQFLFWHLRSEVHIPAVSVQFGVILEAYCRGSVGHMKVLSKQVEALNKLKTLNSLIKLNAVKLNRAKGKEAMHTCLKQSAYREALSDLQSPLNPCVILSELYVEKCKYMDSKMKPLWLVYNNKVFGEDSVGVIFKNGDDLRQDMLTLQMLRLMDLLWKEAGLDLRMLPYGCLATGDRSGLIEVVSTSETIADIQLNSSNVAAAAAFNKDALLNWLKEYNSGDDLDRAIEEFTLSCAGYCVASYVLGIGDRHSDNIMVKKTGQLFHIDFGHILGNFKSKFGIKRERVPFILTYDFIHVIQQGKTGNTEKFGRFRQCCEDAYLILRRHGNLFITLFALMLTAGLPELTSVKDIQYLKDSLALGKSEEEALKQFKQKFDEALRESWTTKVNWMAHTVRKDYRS
Chain of PI3K-beta (P27986 whole entry partner, species assumed, the tested form may be a part): as the sequence (P27986 whole entry partner, species assumed) above

| SMILES | IC50 [1] | IC50 [2] | IC50 [3] | IC50 [4] | IC50 [5] |
| --- | --- | --- | --- | --- | --- |
| COc1ccc2c(c1)c(/C=C1\Oc3cc(O)cc(O)c3C1=O)c(C1CC1)n2CCN1CCC(O)C1 (stereo not drawn) [Example 342, (2Z)-2-({2-Cyclopropyl-1-[2-(3-hydroxypyrrolidin-1-yl)ethyl]-5-methoxy-1H-indol-3-yl}methylene)-4,6-dihydroxy-1-benzofuran-3(2H)-one] | 16.3 nM | 32.5 nM | 4.3 nM | 6.7 nM | 1.5 nM |
| COc1ccc2c(c1)c(/C=C1\Oc3cc(O)cc(O)c3C1=O)c(C(=O)N(C)C)n2CCCN(C)C [Example 343, 3-[(Z)-(4,6-Dihydroxy-3-oxo-1-benzofuran-2(3H)-ylidene)methyl]-1-[3-(dimethylamino)propyl]-5-methoxy-N,N-dimethyl-1H-indole-2-carboxamide] | 71 nM | 292 nM | 12 nM | > 160 nM | 2.5 nM |
| COc1ccc2c(c1)c(/C=C1\Oc3cc(O)ccc3C1=O)c(C(=O)N(C)C)n2CCCN(C)C [Example 345, 1-[3-(Dimethylamino)propyl]-3-[(Z)-(6-hydroxy-3-oxo-1-benzofuran-2(3H)-ylidene)methyl]-5-methoxy-N,N-dimethyl-1H-indole-2-carboxamide] | 100 nM | 692 nM | 24 nM | > 4000 nM | 2 nM |
| COc1ccc2c(c1)c(/C=C1\Oc3cc(O)cc(O)c3C1=O)c(C(=O)N(C)C)n2CCO [Example 348, 3-[(Z)-(4,6-Dihydroxy-3-oxo-1-benzofuran-2(3H)-ylidene)methyl]-1-(2-hydroxyethyl)-5-methoxy-N,N-dimethyl-1H-indole-2-carboxamide] | 76.5 nM | 60.5 nM | 11.5 nM | 17.5 nM | 12.5 nM |
| COc1ccc2c(c1)c(/C=C1\Oc3cc(O)c(Br)cc3C1=O)c(C)n2CCN1CCN(C)CC1 [Example 349, (2Z)-5-Bromo-6-hydroxy-2-({5-methoxy-2-methyl-1-[2-(4-methylpiperazin-1-yl)ethyl]-1H-indol-3-yl}methylene)-1-benzofuran-3(2H)-one] | 931 nM | 5590 nM | 82.5 nM | > 20000 nM | 19 nM |
| COc1ccc2c(c1)c(/C=C1\Oc3cc(O)c(F)cc3C1=O)c(C)n2CCN1CCN(C)CC1 [Example 351, (2Z)-5-Fluoro-6-hydroxy-2-({5-methoxy-2-methyl-1-[2-(4-methylpiperazin-1-yl)ethyl]-1H-indol-3-yl}methylene)-1-benzofuran-3(2H)-one] | 505 nM | 3270 nM | 66 nM | > 800 nM | 9 nM |

Now those with a lower IC50 [1], led by results:

| IC50 [1] | IC50 [2] | IC50 [3] | IC50 [4] | IC50 [5] | SMILES |
| --- | --- | --- | --- | --- | --- |
| 8 nM | 38 nM | 4 nM | 22 nM | 2 nM | COc1ccc2[nH]c(CN(C)C)c(/C=C3\Oc4cc(O)cc(O)c4C3=O)c2c1 [Example 353, (2Z)-2-({2-[(Dimethylamino)methyl]-5-methoxy-1H-indol-3-yl}methylene)-4,6-dihydroxy-1-benzofuran-3(2H)-one] |
| 7.7 nM | 55 nM | 6.1 nM | 77 nM | 3 nM | COc1ccc2[nH]c(CN3CCN(C)CC3)c(/C=C3\Oc4cc(O)cc(O)c4C3=O)c2c1 [Example 346, (2Z)-4,6-Dihydroxy-2-({5-methoxy-2-[(4-methylpiperazin-1-yl)methyl]-1H-indol-3-yl}methylene)-1-benzofuran-3(2H)-one] |
| 5.9 nM | 99 nM | 4.4 nM | 5.25 nM | 0.9 nM | COc1ccc2c(c1)c(/C=C1\Oc3cc(O)cc(O)c3C1=O)c(-c1c(C)noc1C)n2CCN1CCN(C)CC1 [Example 344, (2Z)-2-({2-(3,5-Dimethylisoxazol-4-yl)-5-methoxy-1-[2-(4-methylpiperazin-1-yl)ethyl]-1H-indol-3-yl}methylene)-4,6-dihydroxy-1-benzofuran-3(2H)-one] |
